IC50 data for one compound are collected here from ChEMBL document CHEMBL1151312, “A concise conversion of (-)-sclareol into (+)-coronarin E and (-)-7-epi-coronarin A” (J Nat Prod, 1998).

In brackets after ≈: the same amount, converted by molar mass.

This experiment has as its system V79. The experiment is described as follows: Cytotoxicity against Chinese hamster V79 cells. Particulars: Cricetulus griseus. Type of experiment: cell-based.

In general, IC50 refers to the concentration needed to halve the response being measured. `C=C1[C@@H](O)C[C@H]2C(C)(C)CCC[C@]2(C)[C@H]1/C=C/c1ccoc1` [CORONARIN A] returned an IC50 of 1.65 µg/mL (≈ 5.49 µM).
